Assay results from patent US20230113398A1, “INEXPENSIVE METAL-FREE ORGANIC REDOX FLOW BATTERY (ORBAT) FOR GRID-SCALE STORAGE” (UNIVERSITY OF SOUTHERN CALIFORNIA, priority 2013, published 2023).
In brackets after ≈: the same amount, converted by molar mass. Several values for one entry are separate records, joined by “and”; a condition that tells them apart may be missing. Equal entries are not always repeated.

Key:
[1] = Rotating disk electrode and cyclic voltammetry on glassy carbon, 1 mM compound in 1 M sulfuric acid; assay type: physicochemical; details: for Diffusion Coefficient, (cm^2 s^-1): Levich plot; for Transfer Coefficient, an: Tafel analysis; for Exchange Current Density, (A cm^-2): glassy carbon RDE; for Rate Constant, k°: obtained from exchange current density
Protocol: Measurement of kinetic parameters and diffusion coefficients was conducted in a three-electrode cell consisting of a rotating glassy carbon disk working electrode, a platinum wire counter electrode, and a mercury/mercuric sulfate reference electrode (E° = +0.65 V). […] The solutions were de-aerated and kept under a blanket of argon gas throughout all the experiments. All measurements were conducted in the potentiodynamic mode (Versastat 300 potentiostat) at a scan rate of 5 mV s^-1 over a range of rotation rates (500 rpm to 3000 rpm). Impedance measurements were also made at each rotation rate. Cyclic voltammetry was conducted on a static glassy carbon electrode at a scan rate of 50 mV s^-1.
(§1) Where n is the number of electrons transferred, F, the Faraday constant, A, electrode area, Do, the diffusion coefficient, v, the kinematic viscosity of the solution and C*, the bulk concentration of the reactants. For n = 2, an active electrode area of 0.1925 cm^2, and a kinematic viscosity of the electrolyte of 0.01 cm^2 s^-1, we were able to evalulate the diffusion coefficient from the slope of the straight line plots in FIG. 11D.
(§2) To determine the kinetic parameters for the charge-transfer process, namely the rate constant and the apparent transfer coeffcient, the logarithm of the kinetic current (after correction for mass-transport losses) was plotted against the observed overpotentials greater than 100 mV, where the Tafel equation is applicable (Eq. 4 and FIG. 11E).
(§3) Where I is the current, Ilim is the limiting current, Iex is the exchange current density, Co and CR are the concentration of the oxidized and reduced species at the surface of the electrode, Co* and CR* are the bulk concentrations of the oxidized and reduced species, α is the transfer coefficient, n is the number of electrons transferred, F is the Faraday constant, E-Erev is the overpotential, R is the gas constant, and T is the temperature. The rate constant, ko , was obtained from the exchange current density (Eq. 5).
as §1, with “plots.” for “plots in FIG. 11D.”
as §2, with “equation derived from the Butler-Volmer Equation” for “equation”, “: […]” for “(Eq. 4 and FIG. 11E).”
as §3, with “using the relationship” for “(Eq. 5).”

[2] = cited from earlier work
[3] = Table 5, MSE E°=+0.65 V, 1 M sulfuric acid

Compound	Electrode Potential vs. NHE, V [2]	Diffusion Coefficient (cm2/sec) ([1]; Table 7)	Exchange Current density (A/cm^2) ([1]; Table 7)	E½ vs. MSE, Volt ([1]; Table 7, 1 M sulfuric acid)	Tafel Slope, mV/decade, dη/d(log I) ([1]; Table 7)	other results
O=C1C=C(S(=O)(=O)O)C=C(S(=O)(=O)O)C1=O [1,2-benzoquinone-3,5-disulfonic acid, 1,2-benzoquinone-3,5-disulfonic acid]						Standard Reduction Potentials: E°(formal) Measured ([1]; 1 M sulfuric acid): 0.87; kinetic reversibility from cyclic voltammograms ([1]; 1 M sulfuric acid, glassy carbon): rapid oxidation step, but a slower reduction step; Diffusion Coefficient, (cm^2 s^-1) ([1]; Table 5, 1 M sulfuric acid): 3.80E-6 cm^2 s^-1; E½ vs. MSE, Volt [1, 3]: 0.45 Volt; Transfer Coefficient, an ([1]; Table 5): 0.582; Exchange Current Density, (A cm^-2) ([1]; Table 5, 1 M sulfuric acid): 3.00E-6 A cm^-2; Rate Constant, k° ([1]; Table 5): 0.000155 cm/s; Standard Reduction Potentials: Experimental (E½ values) vs. NHE ([1]; 1 M sulfuric acid): 1.1; solubility (Solubility; Solubility, Table 5): 1000 mM (≈ 268 mg/mL)
O=C1C=CC(=O)C=C1 [1,4-benzoquinone (para), 1,4-benzoquinone]	0.700 V					
O=C1C=C(S(=O)(=O)O)C(=O)c2ccccc21 [1,4-naphthaquinone-2-sulfonic acid]	0.534 V					
O=C1C=CC(=O)c2ccccc21 [1,4-naphthaquinone]	0.483 V					
O=C1c2cccc(S(=O)(=O)O)c2C(=O)c2c1cccc2S(=O)(=O)O [1,8 Anthraquinone disulfonic acid]		3.39E-6 cm2/sec	1.60E-6 A/cm^2	-0.70 Volt		
O=C1c2ccccc2C(=O)c2c(O)cccc21 [1-hydroxy-9,10-anthraquinone]	0.131 V					
O=C1c2ccc(S(=O)(=O)O)cc2C(=O)c2cc(S(=O)(=O)O)ccc21 [2,7 Anthraquinone disulfonic acid]		1.82E-6 cm2/sec	7.82E-7 A/cm^2	-0.57 Volt		
O=C1C=C(O)C(=O)c2ccccc21 [2-hydroxy-1,4-naphthaquinone]	0.357 V					
O=C1C=CC(=O)C(O)=C1 [2-hydroxyl 1,4-benzoquinone]	0.596 V					
O=C1c2ccccc2C(=O)c2c1cccc2S(=O)(=O)O [9,10-anthraquinone-1-sulfonic acid]	0.183 V					
O=S(=O)(O)c1cc(O)ccc1O [Hydroquinone sulfonic acid]		4.28E-6 cm2/sec	2.59E-5 A/cm^2	0.17 Volt	63 mV/decade	Standard Reduction Potentials: E°(formal) Measured ([1]; 1 M sulfuric acid): 0.70; Diffusion Coefficient, (cm^2 s^-1) ([1]; Table 5, 1 M sulfuric acid): 4.28E-6 cm^2 s^-1; E½ vs. MSE, Volt [1, 3]: 0.17 Volt; Transfer Coefficient, an ([1]; Table 5): 0.418; Exchange Current Density, (A cm^-2) ([1]; Table 5, 1 M sulfuric acid): 1.10E-5 A cm^-2; Rate Constant, k° ([1]; Table 5): 0.000552 cm/s; Standard Reduction Potentials: Experimental (E½ values) vs. NHE ([1]; 1 M sulfuric acid): 0.82; solubility (Solubility; Solubility, Table 5): 800 mM (≈ 152 mg/mL); solubility (Solubility; Solubility, Table 7): 800 mM (≈ 152 mg/mL)
Oc1ccc(O)cc1 [Hydroquinone]		5.03E-6 cm2/sec and 5.4E-6 cm2/sec	9.17E-5 A/cm^2	0.02 Volt	110 mV/decade	Standard Reduction Potentials: E°(formal) Measured ([1]; 1 M sulfuric acid): 0.68; Diffusion Coefficient, (cm^2 s^-1) ([1]; Table 5, 1 M sulfuric acid): 5.03E-6 cm^2 s^-1; E½ vs. MSE, Volt [1, 3]: 0.02 Volt; Transfer Coefficient, an ([1]; Table 5): 0.508; Exchange Current Density, (A cm^-2) ([1]; Table 5, 1 M sulfuric acid): 5.09E-5 A cm^-2; Rate Constant, k° ([1]; Table 5): 0.00236 cm/s; Standard Reduction Potentials: Experimental (E½ values) vs. NHE ([1]; 1 M sulfuric acid): 0.67; solubility (Solubility; Solubility, Table 5): 530 mM (≈ 58.4 mg/mL); solubility (Solubility; Solubility, Table 7): 530 mM (≈ 58.4 mg/mL)
O=c1[nH][nH]c(=O)c2ccccc12 [Phthalyl hydrazide]		1.07E-6 cm2/sec	3.03E-6 A/cm^2	0.5 Volt	40 mV/decade	
c1ccc2nccnc2c1 [Quinoxaline]		1.36E-6 cm2/sec and 1.09E-6 cm2/sec				solubility (Solubility; Solubility, Table 7): > 7000 mM
Hydroquinone disulfonic acid		3.80E-6 cm2/sec and 4.04E-6 cm2/sec	3.47E-6 A/cm^2	0.45 Volt	123 mV/decade	solubility (Solubility; Table 7): 1000 mM
Maleic hydrazide		6.57E-6 cm2/sec	5.86E-6 A/cm^2	0.6 Volt	54 mV/decade	
